Results reported in paper PMC6687188, “Novel lactate dehydrogenase inhibitors with in vivo efficacy against Cryptosporidium parvum” (PLoS Pathogens, 2019).

The compounds below were run against recombinant CpLDH protein (Cryptosporidium parvum, UniProt Q9GT92, F198L/K295E/R251K).

| SMILES | MEAN CpLDH INHIBITION (%) |
| --- | --- |
| C[C@]12Cc3cnc(-c4ccccc4)nc3C[C@@H]1CC[C@@H]1[C@@H]2CC[C@@]2(C)[C@H]1CC[C@]2(C)O [NSC39863] | -20.27 |
| Cc1nc(Cl)c(C)c(Cl)n1 [NSC40212] | -35.86 |
| O=C1C(Cl)=C(N2CCN(C3=C(Cl)C(=O)c4ccccc4C3=O)CC2)C(=O)c2ccccc21 [NSC40341] | -22.69 |
| Nc1nc(SCc2ccccc2Cl)c2ncn(C3OC(CO)C(O)C3O)c2n1 (centres unmarked) [NSC40666] | -57.18 |
| O=C(O)CC(S)C(=O)O (centres unmarked) [NSC41809] | -14.35 |
| COc1ccc(/C=C/c2cc(O)cc(O[C@@H]3O[C@H](CO)[C@@H](O)[C@H](O)[C@H]3O)c2)cc1O [NSC43321] | -58.94 |
| CCN(CC)c1ccc2cc3ccc(=[N+](CC)CC)cc-3oc2c1.[Cl-] [NSC44690] | -28.19 |
| Oc1ccc2ccccc2c1N=Nc1cccc2ccccc12 [NSC45575] | -10.08 |
| CCCCCc1cc(/C=C2/N=C(c3ccc[nH]3)C=C2OC)[nH]c1C [NSC47147] | -37.67 |
| CC(=O)O[C@]1(C(C)=O)CC[C@H]2[C@@H]3C[C@H](C)C4=CC(=O)C=C[C@]4(C)[C@@]3(F)[C@@H](O)C[C@@]21C [NSC47438] | -57.83 |
| CC(C)(C)c1ccc(O)c(CN(Cc2cc(C(C)(C)C)ccc2O)C2CCCCC2)c1 [NSC48151] | -66.17 |
| CC(=O)OC(C)(C)/C=C/C(=O)[C@](C)(O)[C@H]1[C@H](O)C[C@@]2(C)[C@@H]3CC=C4[C@@H](C[C@H](O)C(=O)C4(C)C)[C@]3(C)C(=O)C[C@]12C [NSC49451] | -57.10 |
| [Cl-].c1csc(C[N+]23CN4CN(CN(C4)C2)C3)c1 [NSC49660] | -3.53 |
| CN(C)[C@@H]1C(=O)C(C(N)=O)=C(O)[C@@]2(O)C(=O)C3=C(O)c4c(O)cccc4C[C@H]3C[C@@H]12 [NSC51812] | -26.06 |
| C[C@@H]1C[C@H]2CC[C@H](O2)[C@H](C)C(=O)O[C@@H](C)C[C@@H]2CC[C@@H](O2)[C@@H](C)C(=O)O[C@H](C)C[C@H]2CC[C@H](O2)[C@H](C)C(=O)O[C@@H](C)C[C@@H]2CC[C@@H](O2)[C@@H](C)C(=O)O1 [NSC52141] | -100.84 |
| COc1ccc(-c2cc(=O)c3c(OC)c(OC)c(OC)cc3o2)cc1 [NSC53908] | -32.76 |
| Nc1nc(-c2cccs2)cs1 [NSC54297] | -31.48 |
| COc1ccc2oc(-c3ccncc3)cc(=O)c2c1 [NSC54650] | -73.33 |
| O=C1/C(=C\c2cccs2)Oc2ccccc21 [NSC56544] | -23.78 |
| COc1cccc(/C=N\NC(=O)C(C)SC(C)C(=O)N/N=C/c2cccc(OC)c2)c1 (centres unmarked) [NSC56737] | -38.88 |
| CCCCCCCCCCCCCCCCOCC(O)CO (centres unmarked) [NSC59269] | 0.04 |
| O=[n+]1c2c(n([O-])c3ccccc31)-c1cccc3cccc-2c13 [NSC60309] | -23.17 |
| CC[C@@]12CCCN3CC[C@]4(c5cccc(OC)c5N(C(C)=O)[C@@H]4CC1)[C@H]32 [NSC61811] | -26.07 |
| CC(C)[C@@H](C)/C=C/[C@@H](C)[C@H]1CC[C@H]2C3=CC=C4C[C@@H](O)CC[C@]4(C)[C@H]3CC[C@]12C [NSC62791] | -22.35 |
| CS(=O)(=O)c1nc(N)nc2nc[nH]c12 [NSC63446] | -4.16 |
| N#Cc1cn([C@@H]2O[C@H](CO)[C@@H](O)[C@H]2O)c2ncnc(N)c12 [NSC63701] | -0.31 |

| SMILES | MEAN CpLDH INHIBITION (%) |
| --- | --- |
| CC(C)CCCCCCCCCCCCC(=O)NCC(=O)NC1C(O)C(O)C(Nc2ncnc3nc[nH]c23)OC1C(O)CO (centres unmarked) [NSC65104] | -113.50 |
| NC(=O)c1cn([C@@H]2O[C@H](CO)[C@@H](O)[C@H]2O)c2ncnc(N)c12 [NSC65346] | -11.87 |
| NC(=O)C#CC(N)=O [NSC65381] | 0 |
| OC[C@H]1O[C@@H](n2cnc3cncnc32)[C@H](O)[C@@H]1O [NSC65423] | -32.77 |
| O=C(Nc1ccc2c(c1)oc(=O)c1ccccc12)C(Cl)Cl [NSC65937] | -25.00 |
| CCCCC(/C=N/N=C(N)N)CC.Cc1cc(O)c(C(C)C)cc1S(=O)(=O)O [NSC66300] | -42.12 |
| CCCc1c(Cl)nc(Cl)nc1Cl [NSC66914] | -32.10 |
| COc1cc(-c2cc(=O)c3c(OC)c(OC)c(OC)c(OC)c3o2)cc(OC)c1OC [NSC67580] | -41.90 |
| O=C(O)c1ccccc1-c1ccccc1C(=O)Nc1ccc2c(c1)Cc1ccccc1-2 [NSC67690] | -56.08 |
| COc1cc(C[C@H]2c3cc(OC)c(OC)cc3CCN2C)c(Oc2cc3c(cc2OC)-c2c(OC)c(OC)cc4c2[C@H](C3)N(C)CC4)cc1OC [NSC68075] | -148.49 |
| [O-][n+]1ccccc1[S-].[O-][n+]1ccccc1[S-].[Zn+2] [NSC68093] | -17.03 |
| COc1ccc2[nH]c3c(C)c4ccncc4c(C)c3c2c1 [NSC69187] | -16.81 |
| Cl.Cl.Cl.Cl.NCCCNCCCCNCCCN [NSC69852] | -11.66 |
| Nc1ncnc2c1ncn2C1OC(CO)C(O)C1O (centres unmarked) [NSC70422] | -12.00 |
| COc1ccc(OC)c(-c2cc(=O)c3c(OC)c(OC)c(OC)c(OC)c3o2)c1 [NSC71300] | -64.35 |
| Nc1nc(N)c(-c2cccc(C(F)(F)F)c2)c(Cc2cccc(C(F)(F)F)c2)n1 [NSC71669] | -53.065 |
| Nc1nc(=S)c2ncn(C3CC(O)C(CO)O3)c2[nH]1 (centres unmarked) [NSC71851] | -30.23 |
| Nc1ncnc2c1nnn2[C@@H]1O[C@H](CO)[C@@H](O)[C@H]1O [NSC72961] | -2.40 |
| CC(=O)C1=C(O)C2(O)C(=O)c3c(c(C)c4ccc(C)c(O)c4c3O)CC2C(N)C1=O.CCCCCCCCCCCCOS(=O)(=O)O (centres unmarked) [NSC73495] | -99.50 |
| NC(N)=N/N=C(\c1ccc(Cl)cc1)C1CC1 [NSC74420] | -7.03 |
| O=C(Nc1ccc(Sc2ccc(N=Nc3c(O)c(S(=O)(=O)O)cc4cc(S(=O)(=O)O)ccc34)cc2)cc1)c1ccc(N=Nc2c(O)ccc3c(S(=O)(=O)O)cc(S(=O)(=O)O)cc23)cc1 [NSC76027] | -85.04 |
| CC1=Nc2ccccc2/C1=C\c1c(C)[nH]c2ccccc12 [NSC76747] | -6.97 |
| C[C@]12C=CC(=O)C=C1[C@@H](F)C[C@H]1[C@@H]3CC[C@](O)(C(=O)CO)[C@@]3(C)C[C@H](O)[C@@]12F [NSC77021] | -2.42 |
| CCCCOc1ccc(NC(N)=Nc2ccc(Cl)cc2)cc1 [NSC78365] | -60.70 |
| Cc1ccc([N+](=O)[O-])cc1NC(=O)c1cccc([N+](=O)[O-])c1O [NSC79451] | -40.98 |
| Cc1ccc(NC(=O)c2cccc([N+](=O)[O-])c2O)c(C)c1 [NSC79456] | -17.92 |

| SMILES | MEAN CpLDH INHIBITION (%) |
| --- | --- |
| CN(C)c1ccc(/C=C2\C=Cc3ccccc32)cc1 [NSC80087] | -24.95 |
| COc1cc(OC)c(OC)cc1/C=C/c1ccnc2ccccc12 [NSC80756] | -22.71 |
| Cc1ccc(NC(=O)c2cccc([N+](=O)[O-])c2O)c([N+](=O)[O-])c1 [NSC82025] | -16.46 |
| N[C@@H](CSC(c1ccccc1)(c1ccccc1)c1ccccc1)C(=O)O [NSC83265] | -6.04 |
| BrCCC[P+](c1ccccc1)(c1ccccc1)c1ccccc1.[Br-] [NSC84074] | -40.93 |
| C=C1C(=O)O[C@@H]2C[C@@H](C)[C@@H]3C=CC(=O)[C@@]3(C)[C@@H](O)[C@H]12 [NSC85236] | -30.32 |
| Cc1ccc2c(ccc(C=Cc3ccc(O)c4ncccc34)[n+]2C)c1 [NSC85700] | -37.65 |
| Cc1c2c(cc3c1[nH]c1ccccc13)C=NCC2 [NSC86100] | -9.40 |
| Cc1c2ccncc2cc2c1[nH]c1ccccc12 [NSC87206] | -25.74 |
| O=c1cccccc1O [NSC89303] | -7.26 |
| C[C@H]1CCC/C=C/[C@@H]2C[C@H](O)C[C@H]2[C@H](O)/C=C/C(=O)O1 [NSC89671] | -22.45 |
| C=C(C)[C@@H]1CC[C@]2(C)CC[C@]3(C)[C@H](CC[C@@H]4[C@@]5(C)CC[C@H](O)C(C)(C)[C@@H]5CC[C@]43C)[C@@H]12 [NSC90487] | -42.73 |
| CC(C)(C)C1CCC2(CC1)CCN(CCCN1CCOCC1)CC2 [NSC90829] | -2.93 |
| CCCCCCCCCc1c(Cl)nc(Cl)nc1Cl [NSC92510] | -23.70 |
| COc1cc2c3cc1Oc1c(OC)c(OC)cc4c1[C@H](Cc1ccc(cc1)Oc1cc(ccc1O)C[C@H]3N(C)CC2)N(C)CC4 [NSC93135] | -27.33 |
| COc1cc(O)c2c(c1)C(=O)c1cc3c(c(O)c1C2=O)[C@@H](O[C@@H]1O[C@@H](C)[C@H](O)[C@@H](O)[C@H]1OC)[C@H](OC)[C@](C)(O)C3=O [NSC93419] | -51.14 |
| CC1=CC(=C(c2ccc(N)cc2)c2ccc(N)cc2)C=CC1=N.Cl [NSC93739] | -24.21 |
| CC(=O)NCCCCCCNC(C)=O [NSC95580] | -114.38 |
| NC(=S)NN=Cc1ncccc1O [NSC95678] | -37.43 |
| COC1(O)C(=O)c2ccccc2OC1(OC)c1ccccc1 (centres unmarked) [NSC95848] | -17.43 |
| CCN1/C(=C/C(C)=C/c2sc3ccccc3[n+]2CC)Sc2ccccc21.[I-] [NSC96932] | -8.62 |
| CC1(c2cccc3ccccc23)OC(=O)c2ccccc21 (centres unmarked) [NSC97703] | -3.23 |
| CC(=O)c1ccc(Oc2ccc(/C(C)=N\N=C(N)N)cc2)cc1.O=[N+]([O-])O [NSC97911] | -11.97 |
| [O-][Cl+3]([O-])([O-])[O-].c1ccc(-c2csc3c4ccccc4c4ccccc4[n+]23)cc1 [NSC98904] | -42.18 |
| CN1CC[C@]23c4ccccc4N[C@H]1[C@]21CCN(C)[C@H]3Nc2ccccc21 [NSC99016] | -25.29 |
